Reference: PMC2737586 (Chemistry & biology, 2009)

What was measured:
Assay type in all cases: biochemical
ValD [1] = molecular target: ValD (Streptomyces hygroscopicus, UniProt Q1L2K7, H315N); test: TLC of epimerization, relative activity; conditions: TLC after 30 min
N-terminal half of ValD = N-terminal half of ValD (Streptomyces hygroscopicus, UniProt Q1L2K7); test: in vitro epimerase assay
ValD [2] = molecular target: ValD (Streptomyces hygroscopicus, UniProt Q1L2K7, E366A); test: TLC and 1H NMR of epimerization, relative activity; conditions: TLC after 30 min
ValD [3] = molecular target: ValD (Streptomyces hygroscopicus, UniProt Q1L2K7, E107A); test: TLC of epimerization, relative activity; conditions: TLC after 30 min
ValD [4] = molecular target: ValD (Streptomyces hygroscopicus, UniProt Q1L2K7, E291A); test: TLC of epimerization, relative activity; conditions: TLC after 30 min
ValD [5] = molecular target: ValD (Streptomyces hygroscopicus, UniProt Q1L2K7, E183A); test: TLC and 1H NMR of epimerization, relative activity; conditions: TLC after 30 min
C-terminal half of ValD = C-terminal half of ValD (Streptomyces hygroscopicus, UniProt Q1L2K7); test: in vitro epimerase assay
ValD [6] = molecular target: ValD (Streptomyces hygroscopicus, UniProt Q1L2K7, H229N); test: TLC and 1H NMR of epimerization, relative activity; conditions: TLC after 30 min
ValD [7] = molecular target: ValD (Streptomyces hygroscopicus, UniProt Q1L2K7, H130N); test: TLC of epimerization, relative activity; conditions: TLC after 30 min
ValD [8] = molecular target: ValD (Streptomyces hygroscopicus, UniProt Q1L2K7, H44N); test: TLC and 1H NMR of epimerization, relative activity; conditions: TLC after 30 min

O=C1C[C@@](O)(CO)[C@@H](O)[C@H](O)[C@@H]1O [2-epi-5-epi-valiolone]
TLC of epimerization, relative activity (ValD [1]): Mutation at H315 appeared to have moderate effect on the epimerase activity | in vitro epimerase assay (data not shown) (N-terminal half of ValD): truncated proteins have a significantly reduced capacity to convert 2-epi-5-epi-valiolone to 5-epi-valiolone (data not shown) | TLC and 1H NMR of epimerization, relative activity (ValD [2]): H44N, E107A, and E366A proteins had significantly reduced activities | TLC of epimerization, relative activity (ValD [3]): H44N, E107A, and E366A proteins had significantly reduced activities | TLC of epimerization, relative activity (ValD [4]): H130N, E183A, H229N, and E291A proteins had a comparable epimerase activity | TLC and 1H NMR of epimerization, relative activity (ValD [5]): H130N, E183A, H229N, and E291A proteins had a comparable epimerase activity | in vitro epimerase assay (data not shown) (C-terminal half of ValD): truncated proteins have a significantly reduced capacity to convert 2-epi-5-epi-valiolone to 5-epi-valiolone (data not shown) | TLC and 1H NMR of epimerization, relative activity (ValD [6]): H130N, E183A, H229N, and E291A proteins had a comparable epimerase activity | TLC of epimerization, relative activity (ValD [7]): H130N, E183A, H229N, and E291A proteins had a comparable epimerase activity | TLC and 1H NMR of epimerization, relative activity (ValD [8]): H44N, E107A, and E366A proteins had significantly reduced activities
